This is an account of results in USRE39062E1, “INGAP protein involved in pancreatic islet neogenesis” (McGill Unviersity, priority 1995, dated 2006).

Type in all cases: cell-based
The subject of assay [1] is hamster duct cell line. Description: Growth and proliferation of a hamster duct cell line.
The subject of assay [2] is hamster insulinoma cell line. As to the kind of experiment: Growth and proliferation of a hamster insulinoma cell line.
The subject of assay [3] is rat insulinoma cell line. As to the kind of experiment: Growth and proliferation of a rat insulinoma cell line.
The test system of assay [4] is rat tumor duct cell line. As to the kind of experiment: Growth and proliferation of a rat tumor duct cell line.
Assay [5] relates to pancreatic ductal cells. As to the kind of experiment: Stimulation of pancreatic ductal cells to grow and proliferate.
Assay [6] concerns rat pancreatic tumor duct cells (ARIP). Description: 3H-thymidine incorporation into rat pancreatic tumor duct cells (ARIP). To be noted: ARIP cells in Ham's F-12K media, 24 hrs, TCA precipitation. On the procedure: (§1) The same synthetic peptide was tested for its ability to stimulate ^3H-thymidine incorporation into rat pancreatic tumor duct cells (ARIP) and hamster insulinoma tumor cells (HIT). 10 μCi of ^3H-thymidine at 80.4 Ci/mmole concentration was added to approximate 10^6 cells cultured in Ham's F-12K media. After 24 hrs, the cells were harvested and solubilized. Differential precipitation of the nucleic acids with trichloroacetic acid (TCA) was performed according to the procedure modified by Rosenberg et al. and the ^3H-thymidine proportion incorporated was calculated. […] The synthetic peptide had no effect on the control cell line HIT.

In assay [7] the test system is hamster insulinoma tumor cells (HIT). As to the kind of experiment: 3H-thymidine incorporation into hamster insulinoma tumor cells (HIT), control cell line. To be noted: HIT control cell line in Ham's F-12K media, 24 hrs, TCA precipitation. On the procedure:
as §1
(Uptake of a labelled nucleoside into DNA is a usual measure of proliferation.)

With “fragment of 20 amino acids of the sequence of SEQ ID NO: 2, from amino acid #103-#122: fragment of 20 amino acids of INGAP, SEQ ID NO: 2, amino acids #103-#122 (IGLHDPSHGTLPNGSGWKWS)”, the “stimulation of growth and proliferation” value in assay [1] was “effect has been seen”; in assay [2] it was “effect has been seen”; in assay [3], “effect has been seen”; in assay [4] it was “effect has been seen”; in assay [5], “sufficient to stimulate pancreatic ductal cells to grow and proliferate”.
As for “synthetic peptide: synthetic peptide corresponding to amino acids 104-118 in SEQ ID NO:2 of the deduced hamster INGAP protein (GLHDPSHGTLPNGSG)”, in assay [6], the “increase in 3H-thymidine incorporation comparing to the absence of the synthetic peptide” value was 2.4 fold. Besides, the “effect on 3H-thymidine incorporation” value in assay [7] is recorded as “no effect”.
